Assay: Half life in human liver microsomes at 2 uM in presence of NADPH measured up to 40 mins

Compound: Fc1cc(Cl)c2[nH]cc(-c3ccc4ccccc4n3)c2c1
- half-life at 40 min, 2 µM: 23 min

From ChEMBL document CHEMBL4825767, “Development of 2-(5,6,7-Trifluoro-1H-Indol-3-yl)-quinoline-5-carboxamide as a Potent, Selective, and Orally Available Inhibitor of Human Androgen Receptor Targeting Its Binding Function-3 for the Treatment of Castration-Resistant Prostate Cancer” (J Med Chem, 2021)
